Experimental data as given in publication PMC10281575, “PfCRT mutations conferring piperaquine resistance in falciparum malaria shape the kinetics of quinoline drug binding and transport” (PLOS Pathogens, 2023).
“And” between values parts separate entries of the source, which are not always exact repeats. Identical values can stand only once.

Target: T1, PfCRT^Dd2_M343L (Plasmodium falciparum, UniProt Q8IBZ9, A220S/I356T/K76T/M343L/M74I/N326S/N75E/Q271E/R371I)
T1 construct: expressed in transfected cells; host or cells: Xenopus laevis oocytes injected with in vitro transcribed RNA (pSP64T)
T1 sequence (Q8IBZ9 1-424 M74I/N75E/K76T/A220S/Q271E/N326S/M343L/I356T/R371I): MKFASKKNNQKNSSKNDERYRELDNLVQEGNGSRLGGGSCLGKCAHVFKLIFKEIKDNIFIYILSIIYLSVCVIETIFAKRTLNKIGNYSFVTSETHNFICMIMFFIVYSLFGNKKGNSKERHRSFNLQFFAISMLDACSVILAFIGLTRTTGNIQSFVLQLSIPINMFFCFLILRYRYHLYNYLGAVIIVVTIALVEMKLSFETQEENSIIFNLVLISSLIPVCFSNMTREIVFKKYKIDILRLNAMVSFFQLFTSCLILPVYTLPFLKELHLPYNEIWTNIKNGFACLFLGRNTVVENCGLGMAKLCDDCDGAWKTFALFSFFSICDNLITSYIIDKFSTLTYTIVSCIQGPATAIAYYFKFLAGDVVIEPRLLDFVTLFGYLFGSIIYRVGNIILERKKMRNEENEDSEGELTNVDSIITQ
Experiment: Radiolabeled drug uptake in X. laevis oocytes expressing PfCRT^Dd2_M343L
Format: cell-based
From the text: A codon-optimized coding sequence of the Dd2 isoform of PfCRT (PfCRT^Dd2) was subcloned into the pSP64T expression vector [21]. To generate the necessary mutations to introduce the amino acid substitutions H97Y, F145I, M343L or G353V into the pfcrt sequence, the overlap extension method was used. A region from the 5’-untranslated Xenopus β-globin sequence to the respective 3’ region, containing the full length pfcrt coding sequence, was amplified using the following primer pairs: for the H97Y mutation, numbers 1/4 and 2/3; for the F145I mutation, numbers 1/6 and 2/5; for the M343L mutation, numbers 1/8 and 2/7; and for the G353V mutation, numbers 1/10 and 2/9 (for primers, see S2 Table). Both PCR products were used as template for amplification of the final product using primers number 1/2. The resulting fragment was cloned into the pSP64T expression vector, and the presence of the desired mutation was confirmed by sequencing.
Adult female X. laevis frogs (purchased from NASCO) were anesthetized by submersion in a solution of 0.3% (w/v) 3-amino benzoate methanesulfonate for 15 min. Sections of the ovary were surgically removed and placed in Ca^2+-free ND96 buffer supplemented with 0.1% collagenase D (w/v; Roche), 0.5% BSA (w/v) and 9 mM Na2HPO4 at 18°C for 14–16 h while gently shaking. The oocytes were then washed several times with ND96 buffer (5 mM HEPES, pH 7.5, 96 mM NaCl, 2 mM KCl, 1.8 mM CaCl2, 1 mM MgCl2), supplemented with […] gentamycin. Healthy-looking stage V-VI oocytes were manually selected and randomly grouped for injection. A codon-optimized coding sequence of PfCRT was subcloned into the pSP64T expression vector and subsequently linearized using the restriction endonuclease BamHI or SalI (New England Biolabs GmbH). RNA for injection was transcribed in vitro using the mMESSAGE mMACHINE SP6 Transcription kit (Ambion), diluted with nuclease-free water to a final concentration of 0.6 μg/μL and stored at -80°C. RNA was injected using precision-bore glass capillary tubes (3.5-inch glass capillaries; Drummond Scientific Co.), which were pulled on a vertical puller (P-87 Flaming/Brown micropipette puller, Sutter Instrument Co.) and graduated. The micropipettes were connected to a microinjector (Nanoject II Auto-Nanoliter Injector, Drummond Scientific Co.). Injection was conducted under stereomicroscopic control. 50 nL of nuclease-free water alone (control oocytes) or 50 nL of nuclease-free water containing 30 ng of RNA was injected per oocyte. Injected oocytes were kept for 72 h at 18°C in ND96 buffer with two daily buffer changes before being used for further experiments.
Drug transport assays were performed as previously described. Briefly, measurements of radiolabeled drug uptake were made over 1 h, unless otherwise specified. […] Where specified, one or more unlabeled drugs were also present at the indicated concentrations. […] The uptake assays were terminated by removing the oocytes from the reaction medium and washing them three times with 2 mL of ice-cold ND96 buffer. Each oocyte was transferred to a separate scintillation vial and lysed by the addition of 200 μL of a 5% SDS solution. The radioactivity in the sample was measured using a liquid scintillation analyser Tri-Carb 4910 TR (PerkinElmer). Water-injected oocytes were analyzed in parallel as a negative control. The buffer from each condition was measured in duplicate in parallel to each experiment to transform counts per minute into pmol of drug. Drug uptake attributable to PfCRT was determined by subtracting the background uptake from water-injected oocytes from that of PfCRT-expressing oocytes. In all cases, at least three independent experiments were performed on oocytes from different frogs, and for each condition in an experiment, measurements were made from 10 oocytes per treatment.

SMILES	PfCRTDd2_M343L-mediated PPQ uptake at 10 µM PPQ (10 µM PPQ, single replicates)	PfCRTDd2_M343L-mediated PPQ uptake at 50 µM PPQ (50 µM PPQ, single replicates)	PfCRTDd2_M343L-mediated PPQ uptake at 100 µM PPQ (100 µM PPQ, single replicates)	PfCRTDd2_M343L-mediated PPQ uptake at 300 µM PPQ (300 µM PPQ, single replicates)	PfCRTDd2_M343L-mediated PPQ uptake at 500 µM PPQ (500 µM PPQ, single replicates)	Km (Michaelis-Menten fit, 10-500 μM drug, pH 6, read-out: KM, Michaelis constant) [µM]	PfCRTDd2_M343L-mediated CQ uptake at 10 µM CQ (10 µM CQ, single replicates)	PfCRTDd2_M343L-mediated CQ uptake at 50 µM CQ (50 µM CQ, single replicates)	PfCRTDd2_M343L-mediated CQ uptake at 100 µM CQ (100 µM CQ, single replicates)	PfCRTDd2_M343L-mediated CQ uptake at 300 µM CQ (300 µM CQ, single replicates)	PfCRTDd2_M343L-mediated CQ uptake at 500 µM CQ (500 µM CQ, single replicates)	Vmax, maximal velocity of drug transport (Michaelis-Menten fit, 10-500 μM drug, pH 6) [pmol oocyte^-1 h^-1]
Clc1ccc2c(N3CCN(CCCN4CCN(c5ccnc6cc(Cl)ccc56)CC4)CC3)ccnc2c1 [PPQ, piperaquine]	13.08 pmol oocyte-1 h-1 and 6.84 pmol oocyte-1 h-1 and 2.69 pmol oocyte-1 h-1	84.22 pmol oocyte-1 h-1 and 103.15 pmol oocyte-1 h-1 and 60.92 pmol oocyte-1 h-1 and 65.48 pmol oocyte-1 h-1 and 62.52 pmol oocyte-1 h-1 and 18.03 pmol oocyte-1 h-1	130.36 pmol oocyte-1 h-1 and 98.93 pmol oocyte-1 h-1 and 50.24 pmol oocyte-1 h-1	154.89 pmol oocyte-1 h-1 and 102.01 pmol oocyte-1 h-1 and 116.02 pmol oocyte-1 h-1	164.14 pmol oocyte-1 h-1 and 130.73 pmol oocyte-1 h-1 and 130.95 pmol oocyte-1 h-1	80 ± 16	–	–	–	–	–	–
CCN(CC)CCCC(C)Nc1ccnc2cc(Cl)ccc12 (stereo not drawn) [CQ, chloroquine]	–	–	–	–	–	–	1.16 pmol oocyte-1 h-1 and 0.62 pmol oocyte-1 h-1 and 0.22 pmol oocyte-1 h-1	2.13 pmol oocyte-1 h-1 and 3.20 pmol oocyte-1 h-1 and 2.38 pmol oocyte-1 h-1 and 2.37 pmol oocyte-1 h-1	5.08 pmol oocyte-1 h-1 and 4.43 pmol oocyte-1 h-1 and 5.13 pmol oocyte-1 h-1	10.45 pmol oocyte-1 h-1 and 11.10 pmol oocyte-1 h-1 and 13.47 pmol oocyte-1 h-1	14.93 pmol oocyte-1 h-1 and 14.77 pmol oocyte-1 h-1 and 15.77 pmol oocyte-1 h-1	31 ± 2
